# Reference: patent publication US6642209B1, “Use of adenosine compounds to alleviate or normalize pathologically hyperexcited sensory nerve function in a human patient” (priority 1990, dated 2003)
# Where two headings read alike, the source gives them in different places.
# What was measured:
# experimental animals = assay: Lethal to effective dose margin; format: in vivo; conditions: for lethal dose relative to the dose required for analgesia: in vivo
# Protocol: In contrast to other conventional anesthetics, the adenosine compounds are useful over a wide dose range. For example, adenosine is active over a as range of between 1 to 5000 μg/kg/min. In contrast, conventional anesthetic agents, such as isoflurane, have narrow effective ranges. The fatal to effective anesthetic ratio of isoflurane is 3.02±0.13. Other reports indicate that isoflurane has about 1.88 times the safety range of halothane. […] Of course, the anesthesiologist will err on the side of administering too little and, thereby, runs the risk of underdosing the patient. This need for caution may result in an inadequately anesthetized (subanesthetized) patient during the surgical procedure.
# One great advantage observed with adenosine compounds is the wide margin for error on effective therapeutic range. This advantage is exemplified by adenosine where the lethal dose is about 100 times the dose required for analgesia, and ATP where the lethal dose is greater than 150 times the amount required for analgesia.
# rabbits [1] = assay: Replacement of enflurane anesthesia by ATP infusion, electrical tail stimulation and tail clamp; conditions: for DBP / HR / PaCO2 / PaO2 / RR (Respiratory Rate) / SBP: N2O 60%, ENF 2.0-[…], ATP 362 ± 164 μg/kg/min, Mean ± SD, n = 6
# rabbits [2] = assay: Hypothermia induced under adenosine or ATP infusion; format: in vivo, rabbit
# Protocol: The hypothermic and rewarming effects of an adenosine compound are tested in experimental animals prepared similarly as in the rabbit model described herein to test for anesthetic effects, except that the body temperature is allowed to fall. In animal studies (rabbit) where the room has a temperature of approximately 22° C., the body temperature will fall from a norm of about 39° C. to about 32° C. in about three hours. If the animal is cooled further with ice bags, a temperature of approximately 22° C. can be achieved in three hours without cardiovascular decompensation. Rewarming is done with the aid of a thermal blanket and heat lamp. The effective dosages of adenosine compound ranged from about 100 μg/kg/min to about 5000 μg/kg/min.
# Referring to FIG. 7, the body temperature versus time plots are shown for eight different experiments. In Run 1, adenosine 500 μg/kg/min was administered intravenously to rabbits for six hours. The administration was then stopped and the body temperatures were allowed to recover.
# In Run 2, ATP 500 μg/kg/min was administered intravenously for six hours. At that time, the body temperature was 31.5° C. The animal's body temperature was allowed to recover by applying external heating for four hours when (at the arrow) the external heating was removed and the temperature was allowed to fall. The body temperature again fell.
# In Run 3, ATP was administered intravenously. The body temperature stabilized after ten hours at 32.5° C.
# In Runs 4, 5, and 6, adenosine was administered to rabbits until the body temperature reached a constant value. In Run 4, after five hours, the body temperature stabilized at 33° C. In Run 6, after six hours, the temperature stabilized at 31.5° C.
# In Run 7, five unmedicated New Zealand rabbits were anesthetized with halothane in O2 using a face mask. The ear vein was cannulated with a 22 gauge plastic catheter for drug infusion. 500 μg/kg/min to 5500 μ/kg/min adenosine was administered IV. Body temperature was monitored through a rectal thermometer. The body temperature started at approximately 38.5° C. After the application of ice bags, the temperature dropped approximately 5.5° C./hr until a minimum body temperature of approximately 22° C. was achieved.
# The ice bags were removed and external heating applied. The body temperature of all rabbits returned to normal, and the rabbits were apparently normal.
# In a comparison, in Run 8, six rabbits were anesthetized with isofluane and external cooling applied.
# surgical patients [3] = assay: ATP anesthesia replacing enflurane or N2O in patients undergoing oral surgery
# dogs = assay: Oxygen transport and regional tissue oxygenation during graded induced hypotension; format: in vivo, dog; conditions: graded hypotension to MAP 30 mmHg
# Protocol: Arterial and pulmonary artery (Swan-Ganz) catheters were placed via a femoral cut down. […] Another PO2 sensor probe was placed on the surface of the liver, kidney, subcutaneous, and muscle of the chest wall through a small skin incision. Referring to FIG. 6, the dogs were divided into three groups: (a) hemorrhagic (n=7), (b) isoflurane (n=8), and (c) ATP (n=8). […] The following were measured and/or calculated: […] The data were analyzed using ANOVA with the Bonferroni t-test and unpaired t-test where appropriate, accepting p<0.05 as significant.
# surgical patients [4] = assay: ATP infusion to attenuate surgical stress response in patients
# [5] = Anesthesia score chart comparing anesthetic agents for the four components of anesthesia (Table 1); set-up: key: 0 no effect; 1 minimal; 2 mostly; 3 maximal; conditions: for Antinociception (analgesia, less pain perception) / Inhibition of Stress (autonomic responses: blood pressure, heart rate; endocrine and metabolic responses) / Muscle Relaxation / Sleep (unconsciousness, amnesia, sedation): Anesthesia Score 0 to 3; for TOTALS of Anesthesia Score: sum of the four components
# [6] = system: New Zealand white rabbits; assay: Electrical tail stimulation screening: head lift (hypnotic) and escape movement (analgesic) thresholds; format: in vivo, rabbit; conditions: for EM (purposeful escape movement, analgesic) threshold responses / HL (head lift, hypnotic) threshold responses: increasing doses, 60% N2O baseline sedation, FIG. 1
# rabbits [7] = assay: Analgesic activity of adenosine compared with morphine sulfate, tail/ear clamp and electrical stimulation
# rabbits [8] = conditions: rabbit, in vivo
# [9] = system: New Zealand white rabbits
# [10] = GROUP A spontaneously breathing, ATP infusion time 60 min, n = 18, mean
# [11] = GROUP A spontaneously breathing, ATP infusion time 120 min, n = 16, mean
# [12] = GROUP A spontaneously breathing, ATP infusion time 180 min, n = 3, mean
# [13] = GROUP A spontaneously breathing, ATP infusion time 240 min, n = 1
# [14] = GROUP B mechanically breathing, ATP infusion time 60 min, n = 14, mean
# [15] = GROUP B mechanically breathing, ATP infusion time 120 min, n = 10, mean
# [16] = GROUP B mechanically breathing, ATP infusion time 180 min, n = 5, mean
# [17] = GROUP B mechanically breathing, ATP infusion time 240 min, n = 4, mean
# [18] = Run 7, 500 to 5500 μg/kg/min IV, ice bags
# [19] = under 60% N2O, n = 6, Mean ± SD
structure (smiles),measurement,setting,value
"Nc1ncnc2c1ncn2[C@@H]1O[C@H](COP(=O)(O)OP(=O)(O)OP(=O)(O)O)[C@@H](O)[C@H]1O [ATP, adenosine triphosphate]",deaths on overdose,experimental animals; enormous overdoses,no experimental animals died
same,lethal dose relative to the dose required for analgesia,experimental animals,greater than 150 times
same,purposeful escape movements on electrical tail stimulation,rabbits [1]; FIG. 4,purposeful escape movements decreased
same,analgesic effect after the infusion had stopped,rabbits [1]; IV ATP,selective analgesic effect persisted
same,DBP,rabbits [1],83 ± 16 mmHg
same,HR,rabbits [1],278 ± 26 bpm
same,PaCO2,rabbits [1],22 ± 3 mmHg
same,PaO2,rabbits [1],145 ± 24 mmHg
same,RR (Respiratory Rate),rabbits [1],81 ± 14 bpm
same,SBP,rabbits [1],112 ± 20 mmHg
same,body temperature,"rabbits [2]; Run 2, 500 μg/kg/min intravenously for six hours",31.5 °C
same,body temperature at which it stabilized,"rabbits [2]; Run 3, intravenously, after ten hours",32.5 °C
same,ATP infusion dose titrated until ENF or N2O was completely replaced,"surgical patients [3]; 14 patients, Mean ± SD",108 ± 21 µg/kg/min
same,Urine output,"surgical patients [3]; 14 patients, Mean ± SD",111 ± 16 mL/h
same,ventilatory or blood gas deterioration,surgical patients [3]; during ATP infusion in spontaneously breathing patients,No ventilatory or blood gas deterioration was seen
same,O2 supply/demand ratio,dogs,positive O2 supply/demand ratio in all stages of hypotension
same,BE,surgical patients [4]; [10],−3.3
same,Hb,surgical patients [4]; [10],12.6
same,PCO2,surgical patients [4]; [10],44.1
same,PO2,surgical patients [4]; [10],140.9
same,pH (arterial blood gas),surgical patients [4]; [10],7.33
same,BE,surgical patients [4]; [11],−3.2
same,Hb,surgical patients [4]; [11],12.8
same,PCO2,surgical patients [4]; [11],41.9
same,PO2,surgical patients [4]; [11],137.9
same,pH (arterial blood gas),surgical patients [4]; [11],7.34
same,BE,surgical patients [4]; [12],−3.0
same,Hb,surgical patients [4]; [12],11.9
same,PCO2,surgical patients [4]; [12],39.9
same,PO2,surgical patients [4]; [12],165.5
same,pH (arterial blood gas),surgical patients [4]; [12],7.36
same,BE,surgical patients [4]; [13],−4.1
same,Hb,surgical patients [4]; [13],10.7
same,PCO2,surgical patients [4]; [13],31.0
same,PO2,surgical patients [4]; [13],115.1
same,pH (arterial blood gas),surgical patients [4]; [13],7.39
same,BE,surgical patients [4]; [14],−4.2
same,Hb,surgical patients [4]; [14],11.7
same,PCO2,surgical patients [4]; [14],40.2
same,PO2,surgical patients [4]; [14],140.3
same,pH (arterial blood gas),surgical patients [4]; [14],7.34
same,BE,surgical patients [4]; [15],−4.8
same,Hb,surgical patients [4]; [15],11.2
same,PCO2,surgical patients [4]; [15],40.1
same,PO2,surgical patients [4]; [15],142.6
same,pH (arterial blood gas),surgical patients [4]; [15],7.33
same,BE,surgical patients [4]; [16],−5.2
same,Hb,surgical patients [4]; [16],11.8
same,PCO2,surgical patients [4]; [16],41.6
same,PO2,surgical patients [4]; [16],130.4
same,pH (arterial blood gas),surgical patients [4]; [16],7.32
same,BE,surgical patients [4]; [17],−5.4
same,Hb,surgical patients [4]; [17],11.7
same,PCO2,surgical patients [4]; [17],45.4
same,PO2,surgical patients [4]; [17],130.1
same,pH (arterial blood gas),surgical patients [4]; [17],7.288
same,Intra-operative urine output,"surgical patients [4]; Group A, spontaneous ventilation, n=20",58.7 (±43.3) ml/hr
same,Intra-operative urine output,"surgical patients [4]; Group B, mechanically ventilated, n=14",71.8 (±44.6) ml/hr
same,emergence from anesthesia,surgical patients [4]; after discontinuation of N2O and ATP,all patients emerged from anesthesia smoothly
same,cardiovascular and neurobehavioral responses to surgery,surgical patients [4]; continuous infusion in combination with N2O,effectively inhibited
same,ENF requirement,surgical patients [4]; continuous infusion of ATP,markedly reduced
same,hemodynamic and respiratory functions,surgical patients [4]; during ATP infusion,well maintained
"FC(F)OC(F)(F)C(F)Cl (stereo not shown) [ENF, enflurane, reference compound]",DBP,rabbits [1],49 ± 18 mmHg
same,HR,rabbits [1],255 ± 33 bpm
same,PaCO2,rabbits [1],25 ± 1 mmHg
same,PaO2,rabbits [1],148 ± 16 mmHg
same,RR (Respiratory Rate),rabbits [1],72 ± 19 bpm
same,SBP,rabbits [1],69 ± 22 mmHg
same,ENF level that completely inhibits responses to tail clamp,rabbits [1]; under 60% N2O,2-2.5%
same,"Antinociception (analgesia, less pain perception)",[5],1
same,"Inhibition of Stress (autonomic responses: blood pressure, heart rate; endocrine and metabolic responses)",[5],1
same,Muscle Relaxation,[5],1
same,"Sleep (unconsciousness, amnesia, sedation)",[5],3
same,TOTALS of Anesthesia Score,[5],6
"[N-]=[N+]=O [Nitrous Oxide, nitrous oxide]","Antinociception (analgesia, less pain perception)",[5],1
same,"Inhibition of Stress (autonomic responses: blood pressure, heart rate; endocrine and metabolic responses)",[5],1
same,Muscle Relaxation,[5],0
same,"Sleep (unconsciousness, amnesia, sedation)",[5],1
same,TOTALS of Anesthesia Score,[5],3
Nc1ncnc2c1ncn2[C@@H]1O[C@H](CO)[C@@H](O)[C@H]1O [adenosine],lethal dose relative to the dose required for analgesia,experimental animals,about 100 times
same,drug accumulation or respiratory depression,[6]; continuous infusion for prolonged times,did not cause drug accumulation or respiratory depression
same,"EM (purposeful escape movement, analgesic) threshold responses",[6],elevated EM responses
same,"HL (head lift, hypnotic) threshold responses",[6],remained low
same,hemodynamic responses to noxious stimulation,"[6]; rabbit, in vivo",effectively blocked
same,respiratory and blood gas effects,[6]; spontaneously breathing rabbits,maintained normal respiratory and blood gas parameters
same,dose that completely suppressed the responses to both kinds of stimulation (ED90),"rabbits [7]; under 60% N2O, infusion, n = 6",188 ± 20 µg/kg/min
same,BP (Systolic BP),rabbits [8],101 ± 19 mmHg
same,HR,rabbits [8],230 ± 24 bpm
same,PaCO2,rabbits [8],25 ± 4 mmHg
same,PaO2,rabbits [8],126 ± 8 mmHg
same,RR (Respiratory Rate),rabbits [8],85 ± 19 bpm
same,body temperature at which it stabilized,"rabbits [2]; Run 4, after five hours",33 °C
same,body temperature at which it stabilized,"rabbits [2]; Run 6, after six hours",31.5 °C
same,minimum body temperature achieved,rabbits [2]; [18],approximately 22 °C
same,rate of body temperature drop,rabbits [2]; [18],approximately 5.5 ° C./hr
same,survival during body temperature lowering,"rabbits [2]; external cooling, Run 7 (five rabbits), Run 8 (six rabbits)",All five rabbits survived
same,shivering during body temperature lowering,"rabbits [2]; external cooling, Run 7, Run 8",no shivering or other apparent discomfort was observed
same,reduction of the response to the noxious stimulation,[9]; intrathecal administration,as effective as intrathecal fentanyl
same,Δ HR,"[9]; rabbit, in vivo",−22 ± 5 bpm
same,Δ MAP,"[9]; rabbit, in vivo",−4 ± 5 mmHg
same,Δ PaCO2,"[9]; rabbit, in vivo",−6.8 ± 2.1 mmHg
same,Δ PaO2,"[9]; rabbit, in vivo",+10 ± 14
same,Δ RR,"[9]; rabbit, in vivo",−4 ± 10 bpm
"Cn1c(=O)c2[nH]cnc2n(C)c1=O [aminophylline, reference compound]",reversal of sustained analgesia after discontinuation of ATP,rabbits [1]; IV aminophylline,partially reversed
same,reversal of adenosine induced analgesia,rabbits [7]; aminophylline 5-10 mg/kg,consistently reversed
FC(F)(F)C(Cl)Br (stereo not shown) [halothane],"EM (purposeful escape movement, analgesic) threshold responses",[6],consistently elevated
same,"HL (head lift, hypnotic) threshold responses",[6],consistently elevated
same,"Antinociception (analgesia, less pain perception)",[5],1
same,"Inhibition of Stress (autonomic responses: blood pressure, heart rate; endocrine and metabolic responses)",[5],1
same,Muscle Relaxation,[5],1
same,"Sleep (unconsciousness, amnesia, sedation)",[5],3
same,TOTALS of Anesthesia Score,[5],6
CN1CC[C@]23c4c5ccc(O)c4O[C@H]2[C@@H](O)C=C[C@H]3[C@H]1C5.O=S(=O)(O)O [morphine sulfate],suppression of responses to stimulation,"rabbits [7]; titrated IV to 2 mg/kg, under 60% N2O",no animal had complete suppression of all responses
same,BP (Systolic BP),rabbits [7]; [19],105 ± 14 mmHg
same,HR,rabbits [7]; [19],242 ± 72 bpm
same,PaCO2,rabbits [7]; [19],31 ± 3 mmHg
same,PaO2,rabbits [7]; [19],123 ± 14 mmHg
same,RR (Respiratory Rate),rabbits [7]; [19],47 ± 16 bpm
